Experiment [1] deals with microfilariae of Dirofilaria immitis. The experiment in a line: Dirofilaria immitis, Microfilaria (DiMF) In vitro Assay. Format: cell-based. The settings on record: 72 h, read-out: DiMF Minimum Effective Dose (MED), approximately 72 hours incubation, microfilariae assessed for survival or paralysis.
Experiment [2] has as its system third stage larvae of Haemonchus contortus. Put plainly: Haemonchus contortus L3 (HcL3) Assay. In kind it is cell-based. Particulars: 96 h, read-out: HcL3 Minimum Effective Dose (MED).

Consider five molecules from US11331369B2, “Endoparasitic depsipeptides” (Zoetis Services LLC, priority 2017, dated 2022).

On to `CC(C)C[C@H]1C(=O)O[C@H](Cc2ccc(Cn3ccnc3C3CC3)cc2)C(=O)N(C)[C@@H](CC(C)C)C(=O)O[C@H](C)C(=O)N(C)[C@@H](CC(C)C)C(=O)O[C@H](Cc2ccccc2)C(=O)N(C)[C@@H](CC(C)C)C(=O)O[C@H](C)C(=O)N1C` [Example 8-7, (3S,6R,9S,12R,15S,18R,21S,24R)-6-benzyl-18-[[4-[(2-cyclopropylimidazol-1-yl)methyl]phenyl]methyl]-3,9,15,21-tetraisobutyl-4,10,12,16,22,24-hexamethyl-1,7,13,19-tetraoxa-4,10,16,22-tetrazacyclotetracosane-2,5,8,11,14,17,20,23-octaone], for which the minimal effective concentration in experiment [1] was in the range of 0.001 to 0.01 µM; in experiment [2] it was 1 to 10 µM.

Turning to `Cc1cc(C)n(Cc2ccc(C[C@H]3OC(=O)[C@H](CC(C)C)N(C)C(=O)[C@@H](C)OC(=O)[C@H](CC(C)C)N(C)C(=O)[C@@H](Cc4ccc(Cn5nc(C)cc5C)cc4)OC(=O)[C@H](CC(C)C)N(C)C(=O)[C@@H](C)OC(=O)[C@H](CC(C)C)N(C)C3=O)cc2)n1` [Example 1b-29, (3S,6R,9S,12R,15S,18R,21S,24R)-6,18-bis[[4-[(3,5-dimethylpyrazol-1-yl)methyl]phenyl]methyl]-3,9,15,21-tetraisobutyl-4,10,12,16,22,24-hexamethyl-1,7,13,19-tetraoxa-4,10,16,22-tetrazacyclotetracosane-2,5,8,11,14,17,20,23-octaone], the values for the minimal effective concentration in experiment [1] and in experiment [2] were 0.001 to 0.01 µM and 1 to 10 µM, respectively.

On to `CC(C)C[C@H]1C(=O)O[C@H](Cc2ccc(Cn3ccccc3=O)cc2)C(=O)N(C)[C@@H](CC(C)C)C(=O)O[C@H](C)C(=O)N(C)[C@@H](CC(C)C)C(=O)O[C@H](Cc2ccc(Cn3ccccc3=O)cc2)C(=O)N(C)[C@@H](CC(C)C)C(=O)O[C@H](C)C(=O)N1C` [Example 9-28, (3S,6R,9S,12R,15S,18R,21S,24R)-3,9,15,21-tetraisobutyl-4,6,10,16,18,22-hexamethyl-12,24-bis(4-((2-oxopyridin-1 (2H)-yl)methyl)benzyl)-1,7,13,19-tetraoxa-4,10,16,22-tetraazacyclotetracosan-2,5,8,11,14,17,20,23-octaone], for which the minimal effective concentration in experiment [1] lay within 0.001 to 0.01 µM; in experiment [2] it was 1 to 10 µM.

As to `COc1cnn(Cc2ccc(C[C@H]3OC(=O)[C@H](CC(C)C)N(C)C(=O)[C@@H](C)OC(=O)[C@H](CC(C)C)N(C)C(=O)[C@@H](Cc4ccc(Cn5cc(OC)cn5)cc4)OC(=O)[C@H](CC(C)C)N(C)C(=O)[C@@H](C)OC(=O)[C@H](CC(C)C)N(C)C3=O)cc2)c1` [Example 1b-52, (3S,6R,9S,12R,15S,18R,21S,24R)-3,9,15,21-tetraisobutyl-6,18-bis(4-((4-methoxy-1H-pyrazol-1-yl)methyl)benzyl)-4,10,12,16,22,24-hexamethyl-1,7,13,19-tetraoxa-4,10,16,22-tetraazacyclotetracosan-2,5,8,11,14,17,20,23-octaone], the figures for the minimal effective concentration in experiment [1] and in experiment [2] were 0.001 to 0.01 µM and 1 to 10 µM, respectively.

On to `Cc1cnn(Cc2ccc(C[C@H]3OC(=O)[C@H](CC(C)C)N(C)C(=O)[C@@H](C)OC(=O)[C@H](CC(C)C)N(C)C(=O)[C@@H](Cc4cccc(Cn5cc(C)cn5)c4)OC(=O)[C@H](CC(C)C)N(C)C(=O)[C@@H](C)OC(=O)[C@H](CC(C)C)N(C)C3=O)cc2)c1` [Example 3-2, (3S,6R,9S,12R,15S,18R,21S,24R)-3,9,15,21-tetraisobutyl-4,6,10,16,18,22-hexamethyl-12-[[3-[(4-methylpyrazol-1-yl)methyl]phenyl]methyl]-24-[[4-[(4-methylpyrazol-1-yl)methyl]phenyl]methyl]-1,7,13,19-tetraoxa-4,10,16,22-tetrazacyclotetracosane-2,5,8,11,14,17,20,23-octaone], for which the minimal effective concentration in experiment [2] lay within 1 to 10 µM.
